Measurements published in ChEMBL document CHEMBL5537134, “Targeting the pyruvate dehydrogenase complex/pyruvate dehydrogenase kinase (PDC/PDK) axis to discover potent PDK inhibitors through structure-based virtual screening and pharmacological evaluation” (Eur J Med Chem, 2024).
Activity calls are given as the source filed them. The rule behind the calls is not given here.

Key:
A549 [1] = test: Antiproliferative activity against human A549 cells assessed as reduction in cell viability at 40 uM incubated for 72 hrs by MTT assay; format: functional, cell-based
A549 [2] = test: Induction of apoptosis in human A549 cells at 20 uM incubated for 24 hrs by Annexin V-FITC/Propidium Iodide staining based flow cytometry analysis relative to control; format: functional
A549 [3] = test: Induction of cell cycle arrest in human A549 cells assessed as accumulation of cells at G1 phase at 10 uM incubated for 24 hrs by Propidium Iodide staining based flow cytometry analysis (reference value: 49.88 %); format: functional
A549 [4] = test: Anticancer activity against human A549 cells assessed as inhibition of cell growth at 20 uM by IncuCyte Zoom live cell imaging analysis; format: functional, cell-based; settings: time 24-72 hrs, TDE = time-dependent effect
BEAS-2B = test: Cytotoxicity against human BEAS-2B cells assessed as reduction in cell viability upto 50 uM incubated for 72 hrs by MTT assay; format: toxicity, cell-based
A549 [5] = test: Induction of cell cycle arrest in human A549 cells assessed as accumulation of cells at G2 phase at 5 uM incubated for 24 hrs by Propidium Iodide staining based flow cytometry analysis (reference value: 13.19 %); format: functional
A549 [6] = test: Induction of apoptosis in human A549 cells assessed as apoptotic cells at 10 uM incubated for 48 hrs by Annexin V-FITC/Propidium Iodide staining based flow cytometry analysis relative to control; format: functional
A549 [7] = test: Induction of apoptosis in human A549 cells assessed as apoptotic cells at 20 uM incubated for 48 hrs by Annexin V-FITC/Propidium Iodide staining based flow cytometry analysis relative to control; format: functional
Cell membrane [8] = test: Induction of mitochondrial membrane depolarization in human A549 cells assessed as increase in oxygen consumption rate by Seahorse XFe96 extracellular flux analyzer method; format: cell membranes; settings: dose 10-40 µM
Cell membrane [9] = test: Induction of mitochondrial membrane depolarization in human A549 cells assessed as decrease in lactate formation incubated for 8 hrs by NovaBioprofile Flex analyzer method; format: cell membranes; settings: dose 10-40 µM
[10] = molecular target: [Pyruvate dehydrogenase (acetyl-transferring)] kinase isozyme 2, mitochondrial (Homo sapiens, UniProt Q15119); test: Inhibition of recombinant full length human PDK2 (1 to 407 residues) expressed in baculovirus infected Sf9 cells using PDHA1 as substrate incubated for 1 hrs in presence of ATP by ADP-Glo luminescence assay
Cell membrane [11] = test: Induction of mitochondrial membrane depolarization in human A549 cells assessed as increase in JC-1 monomer incubated for 4 hrs by JC-1 staining based flow cytometry analysis; format: cell membranes; settings: dose 5-20 µM
[12] = Toxicity in Balb/c mouse assessed as change in body weight at 50 mg/kg, ip administered for 7 days; format: organism-based; settings: in vivo, 168 h, time 7 day
A549 [13] = test: Induction of cell cycle arrest in human A549 cells assessed as accumulation of cells at S phase at 5 uM incubated for 24 hrs by Propidium Iodide staining based flow cytometry analysis (reference value: 36.92 %); format: functional
A549 [14] = test: Antiproliferative activity against human A549 cells assessed as reduction in cell viability incubated for 72 hrs under hypoxic condition by MTT assay; settings: A549, 72 h
[15] = Toxicity in Balb/c mouse assessed as pathological abnormality in liver at 50 mg/kg, ip administered for 7 days by hematoxylin and eosin staining based analysis; format: organism-based; settings: in vivo, 168 h, time 7 day
A549 [16] = test: Induction of apoptosis in human A549 cells assessed as apoptotic cells at 5 uM incubated for 48 hrs by Annexin V-FITC/Propidium Iodide staining based flow cytometry analysis relative to control; format: functional
[17] = Toxicity in Balb/c mouse assessed as pathological abnormality in heart at 50 mg/kg, ip administered for 7 days by hematoxylin and eosin staining based analysis; format: organism-based; settings: in vivo, 168 h, time 7 day
Cell membrane [18] = test: Induction of mitochondrial membrane depolarization in human A549 cells assessed as disappearance of red fluorescence at 5 to 20 uM incubated for 4 hrs by TMRM staining based laser scanning confocal microscope analysis; format: cell membranes; settings: dose 5-20 µM
A549 [19] = test: Induction of apoptosis in human A549 cells at 20 uM incubated for 12 hrs by Annexin V-FITC/Propidium Iodide staining based flow cytometry analysis relative to control; format: functional
A549 [20] = test: Induction of apoptosis in human A549 cells at 20 uM by Annexin V-FITC/Propidium Iodide staining based flow cytometry analysis; format: functional, cell-based; settings: time 12-48 hrs, TDE = time-dependent effect
Cell membrane [21] = test: Induction of mitochondrial membrane depolarization in human A549 cells assessed as increase in green fluorescence intensity at 5 to 20 uM incubated for 4 hrs by JC-1 staining based laser scanning confocal microscope analysis; format: cell membranes; settings: dose 5-20 µM
[22] = Toxicity in Balb/c mouse assessed as pathological abnormality in spleen at 50 mg/kg, ip administered for 7 days by hematoxylin and eosin staining based analysis; format: organism-based; settings: in vivo, 168 h, time 7 day
A549 [23] = test: Induction of cell cycle arrest in human A549 cells assessed as accumulation of cells at G2 phase at 7.5 uM incubated for 24 hrs by Propidium Iodide staining based flow cytometry analysis (reference value: 13.19 %); format: functional
[24] = Toxicity in Balb/c mouse assessed as pathological abnormality in kidney at 50 mg/kg, ip administered for 7 days by hematoxylin and eosin staining based analysis; format: organism-based; settings: in vivo, 168 h, time 7 day
A549 [25] = test: Induction of cell cycle arrest in human A549 cells assessed as accumulation of cells at S phase at 7.5 uM incubated for 24 hrs by Propidium Iodide staining based flow cytometry analysis (reference value: 36.92 %); format: functional
A549 [26] = test: Induction of cell cycle arrest in human A549 cells assessed as accumulation of cells at G1 phase at 5 uM incubated for 24 hrs by Propidium Iodide staining based flow cytometry analysis (reference value: 49.88 %); format: functional
A549 [27] = test: Induction of cell cycle arrest in human A549 cells assessed as accumulation of cells at G2 phase at 10 uM incubated for 24 hrs by Propidium Iodide staining based flow cytometry analysis (reference value: 13.19 %); format: functional
A549 [28] = test: Induction of apoptosis in human A549 cells incubated for 48 hrs by Annexin V-FITC/Propidium Iodide staining based flow cytometry analysis; format: functional, cell-based; settings: dose 5-20 µM
A549 [29] = test: cells; settings: Homo sapiens
Description: Anticancer activity against human A549 cells assessed as inhibition of cell growth incubated for 24 to 72 hrs by IncuCyte Zoom live cell imaging analysis

A549 [30] = test: Induction of cell cycle arrest in human A549 cells assessed as accumulation of cells at G1 phase at 7.5 uM incubated for 24 hrs by Propidium Iodide staining based flow cytometry analysis (reference value: 49.88 %); format: functional
Cell membrane [31] = test: Induction of mitochondrial membrane depolarization in human A549 cells assessed as decrease in extracellular acidification by Seahorse XFe96 extracellular flux analyzer method; format: cell membranes; settings: dose 10-40 µM
A549 [32] = test: Induction of cell cycle arrest in human A549 cells assessed as accumulation of cells at S phase at 10 uM incubated for 24 hrs by Propidium Iodide staining based flow cytometry analysis (reference value: 36.92 %); format: functional
[33] = Toxicity in Balb/c mouse assessed as pathological abnormality in lung at 50 mg/kg, ip administered for 7 days by hematoxylin and eosin staining based analysis; format: organism-based; settings: in vivo, 168 h, time 7 day
[34] = Toxicity in Balb/c mouse assessed as clinical signs at 50 mg/kg, ip administered for 7 days; format: organism-based; settings: in vivo, 168 h, time 7 day
[35] = Toxicity in Balb/c mouse assessed as death at 50 mg/kg, ip administered for 7 days; format: organism-based; settings: in vivo, 168 h, time 7 day
[36] = molecular target: T1, [Pyruvate dehydrogenase (acetyl-transferring)] kinase isozyme 1, mitochondrial (Homo sapiens, UniProt Q15118); test: Inhibition of recombinant full-length human PDK1 (1 to 436 residues) expressed in baculovirus infected Sf9 insect cells using PDHA1 as substrate at 10 uM incubated for 1 hrs in presence of ATP by Kinase-Glo luminescence assay
[37] = molecular target: T1, [Pyruvate dehydrogenase (acetyl-transferring)] kinase isozyme 1, mitochondrial; test: Inhibition of recombinant full-length human PDK1 (1 to 436 residues) expressed in baculovirus infected Sf9 insect cells using PDHA1 as substrate incubated for 1 hrs in presence of ATP by Kinase-Glo luminescence assay
[38] = molecular target: T1, [Pyruvate dehydrogenase (acetyl-transferring)] kinase isozyme 1, mitochondrial; test: Binding affinity to PDK1 (unknown origin) assessed as dissociation constant
A549 [39] = test: Anticancer activity against human A549 cells assessed as reduction in cell growth at 20 uM by IncuCyte Zoom live cell imaging analysis; format: functional, cell-based
[40] = molecular target: T1, [Pyruvate dehydrogenase (acetyl-transferring)] kinase isozyme 1, mitochondrial; test: Binding affinity to PDK1 (unknown origin) assessed as dissociation constant in presence of 5-((4-chlorophenyl)sulfonamido)-N-(2-hydroxyethyl)-2,4-dimethylbenzenesulfonamide
[41] = molecular target: T1, [Pyruvate dehydrogenase (acetyl-transferring)] kinase isozyme 1, mitochondrial; test: Inhibition of 6His-tagged full length PDK1 (unknown origin) expressed in Escherichia coli in presence of ATP by ELISA based kinase activity assay
A549 [42] = test: Antiproliferative activity against human A549 cells assessed as reduction in cell viability incubated for 72 hrs by CCK8 assay; format: functional, cell-based; settings: A549, 72 h

T1 sequence (Q15118 whole entry, the tested form may be a part): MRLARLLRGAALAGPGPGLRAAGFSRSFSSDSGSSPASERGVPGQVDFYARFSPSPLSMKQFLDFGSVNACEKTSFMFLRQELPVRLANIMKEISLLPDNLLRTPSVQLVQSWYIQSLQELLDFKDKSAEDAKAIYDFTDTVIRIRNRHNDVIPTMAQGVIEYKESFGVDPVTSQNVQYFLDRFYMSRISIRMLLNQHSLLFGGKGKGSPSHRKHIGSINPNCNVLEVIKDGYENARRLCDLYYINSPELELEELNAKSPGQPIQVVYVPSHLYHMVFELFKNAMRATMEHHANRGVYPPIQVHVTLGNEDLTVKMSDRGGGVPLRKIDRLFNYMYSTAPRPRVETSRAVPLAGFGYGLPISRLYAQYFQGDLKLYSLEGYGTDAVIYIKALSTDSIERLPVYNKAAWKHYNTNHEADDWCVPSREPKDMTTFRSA

CC(C)[C@H](NC(=O)N1CCN(C(c2ccc(F)cc2)c2ccc(F)cc2)CC1)C(=O)O
Activity (A549 [1]): Active

Cc1cc(C)c(S(=O)(=O)NCCO)cc1NS(=O)(=O)c1ccc(Cl)cc1
Activity (A549 [2]): 60%
Activity (A549 [3]): 47.77%
Activity (A549 [4]): Tde
Activity (BEAS-2B): Non-Toxic
Activity (A549 [5]): 12.31%
Activity (A549 [6]): 23.8%
Activity (A549 [7]): 80.5%
Activity (Cell membrane [8]): Dose-Dependent Effect
Activity (Cell membrane [9]): Dose-Dependent Effect
IC50 [10]: 136 nM
Activity (Cell membrane [11]): Dose-Dependent Effect
Activity [12]: Non-Toxic
Activity (A549 [13]): 32.44%
IC50 (A549 [14]): 5670 nM
Activity [15]: Non-Toxic
Activity (A549 [16]): 8.8%
Activity [17]: Non-Toxic
Activity (Cell membrane [18]): Active
Activity (A549 [19]): 10.8%
Activity (A549 [20]): Tde
Activity (Cell membrane [21]): Active
Activity [22]: Non-Toxic
Activity (A549 [23]): 7.98%
Activity [24]: Non-Toxic
Activity (A549 [25]): 42.37%
Activity (A549 [26]): 55.25%
Activity (A549 [27]): 1.58%
Activity (A549 [28]): Dose-Dependent Effect
EC50 (A549 [29]): 10700 nM
Activity (A549 [30]): 49.65%
Activity (Cell membrane [31]): Dose-Dependent Effect
Activity (A549 [1]): Active
Activity (A549 [32]): 50.66%
Activity [33]: Non-Toxic
Activity [34]: Non-Toxic
Activity [35]: Non-Toxic

O=C(c1cccc(S(=O)(=O)Nc2cc(Cl)ccc2Cl)c1)N1CCN(CCO)CC1
inhibition [36]: Active

CN(C)C(=O)c1ccc(S(=O)(=O)c2ccc(NC(=O)[C@@](C)(O)C(F)(F)F)c(Cl)c2)cc1
Activity (A549 [3]): 68.5%
IC50 [37]: 32.3 nM
IC50 [10]: 74.5 nM
Kd [38]: 148 nM
Activity (A549 [39]): inactive
Kd [40]: 8900 nM
Activity (A549 [27]): 13.47%
Activity (A549 [32]): 18.03%

S=C(SSC(=S)N1CCOCC1)N1CCOCC1
EC50 [41]: 49 nM
IC50 (A549 [42]): < 500 nM
